This is an account of results in patent publication US20240269139A1, “COMPOUNDS FOR TARGETED PROTEIN DEGRADATION OF KINASES” (DANA-FARBER CANCER INSTITUTE, INC., priority 2020, published 2024).

Read-outs that look alike come from different tables or passages of the source.

Holding throughout (assay type): cell-based
For test [1], the target named is T1, protein kinases (human kinome) (Homo sapiens, UniProt Q16854).
T1 sequence (Q16854 40-277): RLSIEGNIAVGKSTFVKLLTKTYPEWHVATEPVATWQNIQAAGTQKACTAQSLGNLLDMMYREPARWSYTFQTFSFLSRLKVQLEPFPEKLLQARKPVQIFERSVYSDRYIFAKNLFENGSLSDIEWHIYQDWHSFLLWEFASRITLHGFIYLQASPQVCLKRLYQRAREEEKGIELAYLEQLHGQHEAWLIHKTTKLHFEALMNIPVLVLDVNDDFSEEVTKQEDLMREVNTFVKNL
The note with it: DGUOK (Q16854).

The target of test [2] is T2, protein kinases (human kinome) (Homo sapiens, UniProt Q9UBE8).
T2 sequence (Q9UBE8 1-527): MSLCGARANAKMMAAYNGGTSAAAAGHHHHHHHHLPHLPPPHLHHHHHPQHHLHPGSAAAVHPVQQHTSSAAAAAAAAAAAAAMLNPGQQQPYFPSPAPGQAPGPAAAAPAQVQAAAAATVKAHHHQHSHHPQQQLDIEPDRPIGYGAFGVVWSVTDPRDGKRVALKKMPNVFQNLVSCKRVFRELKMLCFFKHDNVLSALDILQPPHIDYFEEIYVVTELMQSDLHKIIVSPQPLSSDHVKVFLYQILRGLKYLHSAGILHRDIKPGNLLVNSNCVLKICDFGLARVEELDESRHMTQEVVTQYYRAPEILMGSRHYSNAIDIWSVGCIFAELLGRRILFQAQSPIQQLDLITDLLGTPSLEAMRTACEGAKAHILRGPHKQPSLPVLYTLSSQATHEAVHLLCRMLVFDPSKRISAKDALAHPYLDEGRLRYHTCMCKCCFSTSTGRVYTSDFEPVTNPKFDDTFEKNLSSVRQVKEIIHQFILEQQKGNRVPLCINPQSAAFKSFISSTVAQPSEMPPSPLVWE
The note with it: NLK (Q9UBE8); experiment wp137; direction down.

The target of test [3] is protein kinases (human kinome) (Homo sapiens, UniProt O14874). The note with it: BCKDK (O14874).
The mark [4] stands for this setting: experiment wp084, direction down.

Regarding `CC(C)(C)c1nc(-c2cccc(NS(=O)(=O)c3c(F)cccc3F)c2F)c(-c2ccnc(NCCOCCNC(=O)CCOCCOCCNc3cccc4c3C(=O)N(C3CCC(=O)NC3=O)C4=O)n2)s1` (stereo not drawn) [DD.03.106], the logFC in test [1] (experiment wp147, 4 uM) is reported as −0.5418; in test [2], −0.441; in test [3] (experiment wp137), −0.3275; in test [3] (experiment wp137, direction down), −0.3275; in test [3] (experiment wp147, 4 uM) it was −0.5831; in test [3] (experiment wp147, 4 uM, direction down), −0.5831.

With `CN(C)C(=O)c1cc2cnc(Nc3ccc(N4CCN(CCCCNC(=O)COc5cccc6c5C(=O)N(C5CCC(=O)NC5=O)C6=O)CC4)cn3)nc2n1C1CCCC1` (stereo not drawn) [BSJ.04.132], the logFC is reported as −0.5254 in test [1] (experiment wp084), −0.5188 in test [3] (experiment wp084) and −0.5188 in test [3] (setting [4]).

Turning to `CC(=O)c1c(C)c2cnc(Nc3ccc(N4CCN(CCOCCOCCOCCNC(=O)COc5cccc6c5C(=O)N(C5CCC(=O)NC5=O)C6=O)CC4)cn3)nc2n(C2CCCC2)c1=O` (stereo not drawn) [BSJ.03.123], the logFC is on record as −0.4377 in test [1] (experiment wp084), −0.4553 in test [3] (experiment wp084) and −0.4553 in test [3] (setting [4]).
